One assay has as its system human iPSC. The class given is cell-based. As to the method: FIGS. 10A-F. Effect of Caspase and p38 MAPK inhibitors on survival and gene targeting of human iPSC. FIG. 10A and FIG. 10B. Mouse Thy1 gene targeting scheme. Human iPSC were nucleofected with the mThy1 targeting vector, Cas9 nuclease, and Thy1 sgRNA expressing plasmid or pUC19 empty vector. Nucleofected cells were evenly divided and plated onto plain media (mTeSR1+10 μM Y-27632 ROCK inhibitor), or media supplemented with the indicated chemical inhibitor. For specific caspase inhibitors, the principal caspase they target is noted in parentheses. […] FIG. 10C. Two days after nucleofection, viable cells were counted. Error bars indicate s.e.m. of technical duplicates. Lines mark the count levels for nucleofected cells in plain media with or without sgRNA. FIG. 10D. Five days after transfection, cells were analyzed by flow cytometry for mThy1 and hThy1 expression. The percent of mThy1^+hThy1^− (bottom of each bar) and mThy1^+hThy1^+ (top of each bar) cells of live single cells is indicated. Lines mark the levels for cells in plain media. […] FIG. 10E. FACS plots of human iPSC transfected with the mThy1 targeting vector, Cas9 nuclease, and Thy1 Left and Right sgRNAs. Cells were subsequently cultured for 5 days in plain media±50 μM zVAD and ±10 μM SB203580. FIG. 10F. Human iPSC cultures were single cell FACS sorted into 96-well tissue culture plates containing a MEF feeder layer and hES media supplemented with SMC4 inhibitors±50 μM zVAD for eight days. Ten days after sorting, the number of surviving iPSC colonies was counted (from 190 cells sorted). PGP1 hiPSC lines created using retroviral vectors or non-integrating methods were both tested.
Pluripotency of iPSC cultures was verified by flow cytometry staining using anti-human Tra-1/60 PE (TRA-1-60, BD) and anti-human Oct3/4 eFluor 660 (EM92, eBioscience) with the fixation buffer sold under the trademark BD CYTOFIX™ and permeabilization buffer sold under the trademark PHOSFLOW™ Perm/Wash buffers. Human g-band karyotype analysis was done by Cell Line Genetics. Viable cell counts were measured with the cell analyzer sold under the trademark MUSE® Count & Viability Assay kit (EMD Millipore). Anti-human HLA-A2 APC (BB7.2) and anti-human HLA-BC PE (B1.23.2) were purchased from eBioscience. Human iPSC cultures were treated with 50 ng/ml recombinant interferon gamma (eBioscience) for 2 days prior to HLA staining.
Plasmids were purified using the plasmid DNA purification kit sold under the trademark Qiagen ENDOFREE® Plasmid Maxi kit and nucleofected into iPSC cells using the Lonza 4D-Nucleofector X unit (Buffer P3, Program CB-150). For each 20 μl nucleofection reaction, 0.2-0.5×106 iPSC were transfected with up to 4 μg of plasmid DNA. Post-nucleofection, iPSC were plated onto solubilized basement membrane matrix secreted by Engelbreth-Holm-Swarm (EHS) mouse sarcoma cells sold under the trademark […]®-coated wells containing feeder-free cell culture medium sold under the trademark MTESR1™ media with 10 μM Y-27632 plus other chemical inhibitors when noted. Later experiments included 50 μM zVAD-fmk (Bachem) for 1 day and 10 μM SB203580 (Biovision) for 4-5 days post transfection (see FIGS. 5, 6, 11, and 12). For FIG. 6 (ssODN transfection), 200 ng/ml recombinant B 18R (eBioscience), was also added to the culture for 5 days post transfection.
The following inhibitors were added to the hiPSC culture at the concentrations and time periods indicated in the Examples below. • 1. p53 or Bax inhibitors: cyclic pifithrin α (StemCell Technologies); pifithrin (Tocris); peptide V5, peptide control, iMAC1 and iMAC2 (EMD Millipore); N-acetyl cysteine and 4-hydroxy TEMPO (TEMPOL) (Sigma). • 2.

In assay [1] the test system is human iPSC containing a doxycycline-inducible Cas9 nuclease. Put plainly: Cas9 nuclease toxicity in doxycycline-inducible Cas9 hiPSC (decline of CFP+EGFP+ cells). Particulars: zVAD added. The class given is cell-based. The source says:
FIGS. 1A-C. Cas9 nuclease toxicity in human iPSC only occurs with sgRNAs that target the human genome. FIG. 1A. A human iPSC line containing a doxycycline-inducible Cas9 nuclease was infected with lentivirus that constitutively expresses CFP together with an sgRNA. Three days after infection, each culture was divided into several wells and treated with the indicated concentrations of doxycycline for up to 14 days. FIG. 1B. At the indicated time points, the percent of CFP^+ of live single cells was determined by flow cytometry. […] FIG. 1C. 14 days after doxycycline induction, iPSC infected with the Thy1 sgRNA were stained for expression of the Thy1 surface marker and analyzed by flow cytometry. The percent of Thy1-negative edited cells gated on the CFP^+ infected cells is shown for varying concentrations of doxycycline. Results are representative of three independent experiments.
FIGS. 2A-B. Nuclease-mediated toxicity in human iPSC can be rescued by overexpression of dominant negative p53 or anti-apoptotic Bcl-2 family members. FIG. 2A. […] At the indicated time points, the percent of CFP EGFP^+ iPSC was determined by flow cytometry. […]
FIG. 13. […] At the indicated time points, the percent of CFP^+EGFP^+ iPSC was determined by flow cytometry. […]

Peptide text beside a SMILES is read from it. * marks the point of attachment. Cbz = O=C(OCc1ccccc1)*; CH2F = FC*

For the compound `CC(NC(=O)C(NC(=O)OCc1ccccc1)C(C)C)C(=O)NC(CC(=O)O)C(=O)CF` (stereo not drawn) [zVAD] (Cbz-Val-Ala-Asp-CH2F; configuration not given here), in the assay with human iPSC (lower concentration, 25 μM), the anoikis rescue result is listed as “did not show as much anoikis rescue”. Also, the “rescue of hiPSC from cell death (anoikis) after nucleofection” value with human iPSC (viable cells two days after nucleofection, sgRNA plasmid or pUC19 control) is “rescued cells transfected with an sgRNA, and also those transfected with the pUC19 control”. For the same compound, the “doxycycline-induced Cas9 nuclease toxicity” value in assay [1] is given as “did not affect”.

The record behind these values is patent US11459586B2, “Methods for increasing efficiency of nuclease-mediated gene editing in stem cells” (President and Fellows of Harvard College, priority 2016, dated 2022).
